Measurements: PMC13005684 (Advanced Healthcare Materials, 2025)
Counter-ions that a name gives are not always drawn.

Columns and labels:
[1] = system: MDA-MB-231 cells; test: cells; type: cell-based; settings: Homo sapiens, MDA-MB-231, 72 h, read-out: 3-day IC50
[2] = system: MDA-MB-231 cells; type: cell-based, human

In the case of `COC1=C2C[C@@H](C)C[C@H](OC)[C@H](O)[C@@H](C)/C=C(\C)[C@H](OC(N)=O)[C@@H](OC)/C=C\C=C(/C)C(=O)NC(=CC1=O)C2=O` [geldanamycin, Geldanamycin], the IC50 [1] is reported as 3700 nM and the “cell death pathway triggered” value [2] is reported as “apoptosis”.

For `COc1cccc2c1C(=O)c1c(O)c3c(c(O)c1C2=O)C[C@@](O)(C(=O)CO)C[C@@H]3O[C@H]1C[C@H](N)[C@H](O)[C@H](C)O1` [doxorubicin, doxorubicin hydrochloride], the IC50 [1] was roughly 510 nM and the “cell death pathway triggered” value [2] was “necrotic cell death pathway”.
